Assay results as given in article doi:10.1101/471615v1 (biorxiv, 2018).

Key:
Experiment in all cases: biochemical
[1] = target: ABL1-Phos. (Homo sapiens, UniProt P00519)
[2] = target: T1, MEK5 (Homo sapiens, UniProt Q13163)
T1 sequence (Q13163 1-448): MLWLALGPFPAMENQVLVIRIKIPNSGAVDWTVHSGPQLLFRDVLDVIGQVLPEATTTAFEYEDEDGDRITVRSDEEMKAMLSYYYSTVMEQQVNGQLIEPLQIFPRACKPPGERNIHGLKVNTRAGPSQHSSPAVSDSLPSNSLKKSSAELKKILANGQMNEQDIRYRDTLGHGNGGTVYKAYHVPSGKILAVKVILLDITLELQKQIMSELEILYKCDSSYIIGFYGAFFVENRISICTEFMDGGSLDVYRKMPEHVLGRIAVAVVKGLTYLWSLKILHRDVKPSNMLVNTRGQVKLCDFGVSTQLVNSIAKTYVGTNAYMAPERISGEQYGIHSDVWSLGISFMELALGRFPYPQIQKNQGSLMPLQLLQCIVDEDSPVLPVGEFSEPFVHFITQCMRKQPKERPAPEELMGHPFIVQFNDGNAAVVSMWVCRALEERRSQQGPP

[3] = target: T2, TXK (Homo sapiens, UniProt P42681)
T2 sequence (P42681 1-527): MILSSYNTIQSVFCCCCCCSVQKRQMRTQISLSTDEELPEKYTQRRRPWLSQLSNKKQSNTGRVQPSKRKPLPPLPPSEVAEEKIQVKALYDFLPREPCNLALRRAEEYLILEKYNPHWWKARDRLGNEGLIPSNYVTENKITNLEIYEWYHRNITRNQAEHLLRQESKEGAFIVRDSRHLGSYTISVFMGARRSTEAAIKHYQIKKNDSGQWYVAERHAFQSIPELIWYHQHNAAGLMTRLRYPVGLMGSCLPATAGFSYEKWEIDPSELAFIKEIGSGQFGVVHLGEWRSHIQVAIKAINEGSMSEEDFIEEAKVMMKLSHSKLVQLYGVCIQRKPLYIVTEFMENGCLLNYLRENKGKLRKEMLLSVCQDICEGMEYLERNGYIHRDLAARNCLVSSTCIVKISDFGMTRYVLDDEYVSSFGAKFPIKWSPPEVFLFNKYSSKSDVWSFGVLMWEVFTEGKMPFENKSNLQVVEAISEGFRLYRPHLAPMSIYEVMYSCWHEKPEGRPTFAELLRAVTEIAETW

[4] = target: T3, EphA8 (Homo sapiens, UniProt P29322)
T3 sequence (P29322 1-1005): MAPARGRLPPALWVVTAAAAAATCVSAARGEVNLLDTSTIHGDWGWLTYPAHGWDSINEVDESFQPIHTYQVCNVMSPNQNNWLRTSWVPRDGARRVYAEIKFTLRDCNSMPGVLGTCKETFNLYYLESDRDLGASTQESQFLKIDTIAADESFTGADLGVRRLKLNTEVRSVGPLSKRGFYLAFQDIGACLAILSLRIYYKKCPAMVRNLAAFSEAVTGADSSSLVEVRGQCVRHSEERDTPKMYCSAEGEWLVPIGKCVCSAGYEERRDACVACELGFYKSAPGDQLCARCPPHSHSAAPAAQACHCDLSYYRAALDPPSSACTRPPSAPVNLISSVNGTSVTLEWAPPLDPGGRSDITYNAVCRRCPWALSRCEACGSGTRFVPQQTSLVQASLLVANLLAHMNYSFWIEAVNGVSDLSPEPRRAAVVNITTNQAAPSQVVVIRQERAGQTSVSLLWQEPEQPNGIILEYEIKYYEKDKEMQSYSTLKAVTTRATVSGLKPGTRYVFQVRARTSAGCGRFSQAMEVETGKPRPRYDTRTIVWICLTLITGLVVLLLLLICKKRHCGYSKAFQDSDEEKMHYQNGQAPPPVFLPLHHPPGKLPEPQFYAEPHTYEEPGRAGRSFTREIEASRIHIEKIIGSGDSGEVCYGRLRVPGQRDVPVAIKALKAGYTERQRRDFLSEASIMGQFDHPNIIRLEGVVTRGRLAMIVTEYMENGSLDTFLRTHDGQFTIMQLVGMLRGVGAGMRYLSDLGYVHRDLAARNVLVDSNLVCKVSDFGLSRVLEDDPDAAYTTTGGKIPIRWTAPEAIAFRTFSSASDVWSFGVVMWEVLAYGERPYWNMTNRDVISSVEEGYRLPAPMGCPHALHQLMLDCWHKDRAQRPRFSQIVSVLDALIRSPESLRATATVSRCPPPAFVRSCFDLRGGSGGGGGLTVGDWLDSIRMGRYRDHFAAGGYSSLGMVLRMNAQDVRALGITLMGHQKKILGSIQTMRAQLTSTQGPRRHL

Chain of ABL1-Phos. (P00519 whole entry): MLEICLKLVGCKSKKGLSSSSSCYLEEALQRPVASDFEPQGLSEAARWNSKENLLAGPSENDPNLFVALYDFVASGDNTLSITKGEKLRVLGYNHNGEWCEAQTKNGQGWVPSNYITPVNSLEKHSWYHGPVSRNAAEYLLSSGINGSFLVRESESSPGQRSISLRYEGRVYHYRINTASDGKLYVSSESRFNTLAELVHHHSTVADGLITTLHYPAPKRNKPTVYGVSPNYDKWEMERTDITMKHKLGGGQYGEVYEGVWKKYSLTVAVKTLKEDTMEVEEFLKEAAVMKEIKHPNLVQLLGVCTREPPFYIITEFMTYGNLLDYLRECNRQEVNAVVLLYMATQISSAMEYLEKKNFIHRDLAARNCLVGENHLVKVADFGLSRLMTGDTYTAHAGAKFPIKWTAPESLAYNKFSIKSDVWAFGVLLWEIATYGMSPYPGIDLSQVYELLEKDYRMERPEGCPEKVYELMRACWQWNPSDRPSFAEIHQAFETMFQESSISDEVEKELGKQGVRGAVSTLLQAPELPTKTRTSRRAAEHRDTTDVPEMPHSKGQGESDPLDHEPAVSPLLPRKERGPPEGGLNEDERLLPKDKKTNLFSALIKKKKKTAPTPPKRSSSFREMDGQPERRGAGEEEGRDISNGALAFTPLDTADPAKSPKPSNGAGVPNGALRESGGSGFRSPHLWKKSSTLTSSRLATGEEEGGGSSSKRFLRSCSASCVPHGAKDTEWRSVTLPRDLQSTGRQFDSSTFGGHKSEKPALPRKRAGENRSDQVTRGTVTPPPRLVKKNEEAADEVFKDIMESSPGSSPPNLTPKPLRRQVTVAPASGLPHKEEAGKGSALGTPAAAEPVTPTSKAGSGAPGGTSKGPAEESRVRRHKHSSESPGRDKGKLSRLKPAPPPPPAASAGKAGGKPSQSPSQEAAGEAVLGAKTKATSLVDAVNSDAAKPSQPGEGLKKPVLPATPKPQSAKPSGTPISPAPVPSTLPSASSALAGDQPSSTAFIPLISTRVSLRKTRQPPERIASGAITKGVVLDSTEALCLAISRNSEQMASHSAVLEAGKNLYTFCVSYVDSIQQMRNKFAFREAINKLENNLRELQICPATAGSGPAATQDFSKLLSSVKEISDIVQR

- Kd [1]: > 10 µM
- Kd [2]: > 10 µM
- Kd [3]: > 10 µM
- Kd [4]: > 10 µM
Structure (SMILES): COc1cc(N(C)c2ccnc3ccc(C(F)(F)F)cc23)cc(OC)c1OC [compound 21, negative control (21)]
